{"source": "patent US11865098B1", "about": "“Methods and compositions for treating excessive sleepiness” (Axsome Malta Ltd., priority 2017, dated 2024)", "format_in_all_cases": "in vivo, human", "key": {"[1]": {"tested_on": "adult patients with OSA and ES", "assay": "SF-36v2 health-related quality of life, 12-week parallel study in OSA", "settings": "week 12", "description": "This was a 12-week, double-blind, placebo-controlled, parallel-design study. Patients were randomized (1:1:2:2:2) to APC 37.5 mg, 75 mg, 150 mg, or 300 mg, or placebo for 12 weeks, and were stratified by adherence or nonadherence with primary OSA therapy.\nThe SF-36 v2 consists of 2 summary scales (Physical Component Summary and Mental Component Summary) and 8 specific health status domains (Physical Function, Role Physical, Bodily Pain, General Health, Vitality, Social Functioning, Role Emotional, Mental Health) (Ware Jr et al., User's Manual for the SF-36v2™ Health Survey (2nd ed). QualityMetric Incorporated (Lincoln, RI); 2007). The EQ-5D-5L consists of 5 questions/dimensions (Mobility, Self-care, Usual Activities, Pain/Discomfort, and Anxiety/Depression) that have 5 response levels each (no problems, slight problems, moderate problems, severe problems, and extreme problems/unable to do) that are used to derive an overall EQ-5D-5L index score (0=death, 1=perfect health), and a health status visual analog scale (VAS) that is anchored at 0 with “the worst health you can imagine” and at 100 with “the best health you can imagine.” (The EuroQol Group. EQ-5D-5L User Guide. Version 2.1. April 2015. www.eurogol.org/fileadmin/user_upload/Documenten/PDF/Folders_Flyers/EQ-5D-5L_UserGuide_2015.pdf)\nEfficacy analyses were based on the modified intent-to-treat (mITT) population; there was no multiplicity adjustment for the SF-36 v2 or EQ-5D-5L. SF-36 v2 scores were scaled from 0 to 100 (higher scores on all scales represent better health), transformed to norm-based scores using US general-population data from SF-36 Manuals (Ware Jr et al., User's Manual for the SF-36v2™ Health Survey (2nd ed.). QualityMetric Incorporated (Lincoln, RI); 2007), and were analyzed using a mixed-effect model with repeated measures (MMRM); and baseline value of the efficacy endpoint was used to determine differences in changes from baseline. EQ-5D-5L VAS and index-score data were analyzed using an MMRM model. Safety and tolerability were assessed based on treatment-emergent adverse events (TEAEs), vital signs, electrocardiogram test, physical exams, and laboratory tests."}, "[2]": {"tested_on": "adults with OSA and excessive sleepiness", "assay": "Epworth Sleepiness Scale (ESS), phase 3 randomized withdrawal study in OSA", "settings": "for ESS score after 4 weeks of APC treatment: randomized patients, mITT", "description": "The ESS is a subjective sleepiness test that is well known in the art and routinely used to measure the sleepiness level of a subject. The scale is intended to measure daytime sleepiness through the use of a short questionnaire that asks the subject to rate his or her probability of falling asleep on a scale of increasing probability from 0 to 3 for eight different situations that most people engage in during their daily lives. The scores for the eight questions are added together to obtain a single number that estimates the subject's average sleep propensity (ASP). A number in the 0-10 range is considered to be normal while 11-12 indicates mild excessive sleepiness, 13-15 indicates moderate excessive sleepiness, and 16 or higher indicates severe excessive sleepiness. Narcolepsy patients have an average score of about 17. Obstructive sleep apnea (OSA) patients with excessive sleepiness have an average score of about 15.\n(§1) The study was a double-blind, placebo-controlled, enriched, randomized withdrawal design (FIG. 1). In the Titration Phase (weeks 1-2), patients started on a once-daily dose of APC 75 mg and could be titrated up or down every 3 days to reach a maximum tolerated dose of APC 75, 150, or 300 mg. In the Stable-Dose Phase (weeks 3-4), patients continued to receive the dose that they were titrated to in the Titration Phase for 2 weeks. […]\n(§2) Efficacy was based on change from week 4 to 6 on the co-primary endpoints of MWT and ESS and percentage of patients reported as improved on the PGI-C and Clinician Global Impression of Change (CGI-C); assessed on a 7-point scale from 1 (very much improved) to 7 (very much worse).\n(§3) MWT and ESS data were analyzed using a mixed-effect model repeated measures (MMRM); PGI-C and CGI-C were evaluated using a chi-square test. […] Safety and tolerability were evaluated based on treatment-emergent adverse events (TEAEs), vital signs, and laboratory values."}, "[3]": {"tested_on": "adults with OSA and excessive sleepiness", "assay": "Maintenance of Wakefulness Test (MWT), phase 3 randomized withdrawal study in OSA", "settings": "for MWT mean sleep latency after 4 weeks of APC treatment: randomized patients, mITT, 75, 150 or 300 mg once daily", "description": "The MWT is an objective test used to measure how alert a subject is during the day. The test consists of four sleep trials with two hours in between the trials. The first trial is performed 1.5-3 hours after the subject's normal wake-up time. Sensors are placed on the head, face, and chin to detect when the subject is asleep and awake during the test. The subject sits quietly in bed with his or her back and head supported by a pillow and is asked to sit still and look straight ahead while trying to stay awake as long as possible. Each trial lasts 40 minutes or until the subject is asleep for 90 seconds. Between trials, the subject stays out of bed and occupies himself or herself to remain awake. Falling asleep in an average of less than eight minutes is considered abnormal. About 40-60% of subjects with normal sleep stay awake for the entire 40 minutes of all four trials.\nas §1, §2, §3"}}, "data": [{"smiles": "NC(=O)OC[C@H](N)Cc1ccccc1", "note": "[JZP-110, (R)-2-amino-3-phenylpropyl carbamate]", "values": [{"measurement": "SF-36v2 Role Physical, General Health, Social Functioning, Role Emotional vs placebo", "setting": "[1]; 150 mg", "value": "significantly greater changes from baseline relative to placebo"}, {"measurement": "SF-36v2 Role Physical and Vitality domains and Physical Component Summary Scale vs placebo", "setting": "[1]; 300 mg", "value": "significantly greater improvements relative to placebo"}, {"measurement": "SF-36v2 Mental Component Summary scores vs placebo", "setting": "[1]; 37.5, 75, 150 mg similar", "value": "only APC 150 mg reaching statistical significance"}, {"measurement": "SF-36v2 Vitality domain, response vs MCID", "setting": "[1]; 75, 150, and 300 mg", "value": "exceeded the MCID"}, {"measurement": "SF-36v2 Physical Component Summary Scale, increase vs placebo", "setting": "[1]; 150 and 300 mg", "value": "statistically significant"}, {"measurement": "SF-36v2 Vitality domain vs placebo", "setting": "[1]; 150 and 300 mg", "value": "statistically significant improvements relative to placebo"}, {"measurement": "SF-36v2 Physical and Mental Component Summary changes vs MCID", "setting": "[1]", "value": "did not exceed the minimal clinically important difference"}, {"measurement": "Mean decrease in ESS score from week 4 to week 6", "setting": "[2]; Double-Blind Withdrawal Phase, patients who stayed on APC, P<0.0001 vs switched to placebo", "value": 0.1}, {"measurement": "ESS score after 4 weeks of APC treatment", "setting": "[2]; group decreased from 15.3 at baseline", "value": 6.4}, {"measurement": "ESS score after 4 weeks of APC treatment", "setting": "[2]; group decreased from 16.0 at baseline", "value": 5.9}, {"measurement": "Change in mean MWT sleep latency from week 4 to week 6", "setting": "[3]; Double-Blind Withdrawal Phase, patients who remained on JZP-110, P<0.0001 vs switched to placebo", "value": -1.0, "unit": "min"}, {"measurement": "MWT mean sleep latency after 4 weeks of APC treatment", "setting": "[3]; group increased from 12.3 at baseline", "value": 29.0, "unit": "min"}, {"measurement": "MWT mean sleep latency after 4 weeks of APC treatment", "setting": "[3]; group increased from 13.1 at baseline", "value": 31.7, "unit": "min"}]}]}
